Holding throughout (format): biochemical
The target in one experiment is Aβ1-42 (Homo sapiens, UniProt P05067). In words: Effect of metal chelators on H2O2 production from Aβ1-42. The conditions noted are these: 1 μM Cu^2+; chelator 200 μM.
The target in experiment [1] is T1, Aβ1-40 or Aβ1-42 SDS-resistant polymers (Homo sapiens, UniProt P05067).
T1 construct: purchased W. Keck Laboratory, Yale; host or cells: chemical synthesis
Kind of experiment: Dissolution of in vitro Cu^2+-induced SDS-resistant Aβ polymers.

Experiment [2] is described as follows: Metal reduction assay, Fe^3+ to Fe^2+. The note with it: 10 μM Fe^3+, PBS pH 7.4, 1 hr 37° C. As for the experimental part:
(§1) The metal reduction assay was performed using a 96-well microtiter plate (Costar) based upon a modification of established protocols (Landers, J. W., et al., Amer. Clin. Path. 29:590 (1958); Landers, J. W., et al., Clinica Chimica Acta 3:329 (1958)). Polypeptides (10 μM) or Vitamin C (100 μM), metal ions (10 μM, Fe(NO3)3 or Cu(NO3)2), and reduced metal ion indicators, bathophenanthrolinedisulfonic acid (BP, for Fe^2+, Sigma, 200 μM) or bathocuproinedisulfonic acid (BC, for Cu^+, Sigma, 200 μM), were coincubated in phosphate buffered saline (PBS), pH 7.4, for 1 hr at 37° C. The metal ion solutions were prepared by direct dilution in the buffer from their aqueous stocks purchased from National Institute of Standards and Technology (NIST). Absorbances were then measured at 536 mn (Fe^2+-BP complex) and 483 nm (Cu^+-BC complex), respectively, using a 96-well plate reader (SPECTRAmax 250, Molecular Devices, CA). In control samples, both metal ion and indicator were present to determine the background buffer signal. As a further control, both metal ion and peptide were present in the absence of indicator to estimate the contribution of light scattering due to turbidity to the absorbance reading at these wavelengths. The net absorbances (ΔA) at 536 nm or 483 nm were obtained by deducting the absorbances from these controls from the absorbances generated by the peptide and metal in the presence of the respective indicator.
The concentrations of reduced metal ions (Fe^2+ or Cu^+) were quantified based on the formula: Fe^2+ or Cu^+ (˜M)=A*10^6/(L*M), where L is the measured equivalent vertical pathlength for a well of 300 μL volume as described in the instrument's specifications manual (0.856 cm for Fe^2+; 1.049 cm for Cu^+); M is the known molecular absorbance (M^−1 cm^−1) which is 7124 (for Fe^2+-BP complex) or 2762 (for Cu^+-BC complex).

A short description of experiment [3]: Metal reduction assay, Cu^2+ to Cu^+. As for the experimental part: Aβ (10 μM in PBS, pH 7.4 or 6.8, as shown) was incubated for 30 minutes (37° C.) in the presence of Cu^2+10 μM ±Zn^2+ 10 μM). […] levels (n=3, ±SD) were assayed against a standard curve.
as §1, with “Polypeptides” for “The metal reduction assay was performed using a 96-well microtiter plate (Costar) based upon a modification of established protocols (Landers, J. W., et al., Amer. Clin. Path. 29:590 (1958); Landers, J. W., et al., Clinica Chimica Acta 3:329 (1958)). Polypeptides”, “Absorbances were then measured at 536 mn (Fe^2+-BP complex) and 483 nm (Cu^+-BC complex), respectively, using a 96-well plate reader (SPECTRAmax 250, Molecular Devices, CA).” left out

Where a name gives a salt, the structure may show the parent alone.

T1 sequence (P05067 672-713, change not shown): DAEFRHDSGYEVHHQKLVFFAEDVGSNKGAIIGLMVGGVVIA
Sequence of Aβ1-42 (P05067 672-713 limits assumed): as the sequence (P05067 672-713, change not shown) above

Turning to `O=S(=O)(O)c1ccc(-c2ccnc3c2ccc2c(-c4ccc(S(=O)(=O)O)cc4)ccnc23)cc1` [BP, bathophenanthrolinedisulfonic acid], the “effect on H2O2 formation by Aβ1-42” value on Aβ1-42 is recorded as “inhibited H2O2 formation”.

Consider `NC(N)=O` [Urea, urea], for which the results for the “disruption of SDS-resistant polymers” value in experiment [1] (4.5 M) and in experiment [1] (9M) were “did not disrupt” and “only slightly”, respectively.

`N=C(N)N` [guanidine HCl]: the “disruption of SDS-resistant polymers” value in experiment [1] (4.5 M) is given as “did not disrupt”; in experiment [1] (9M), “only slightly”.

On to “insulin: histidine-containing peptide that can bind copper and zinc”, for which the “reduction of available Fe^3+” value in experiment [2] is “did not significantly facilitate the reduction of Fe^3+”. Moreover, the “reduction of available Cu^2+” value in experiment [3] (10 μM Cu^2+, PBS pH 7.4, 1 hr 37° C.) was found to be 10%. Moreover, the “Cu^2+ reduction” value in experiment [3] (10 μM, PBS, 30 minutes 37° C., Cu^2+ 10 μM) was “no Cu^2+ reduction”.

The values are drawn from patent publication US20020082273A1, “Agents for use in the treatment of alzheimer's disease” (priority 1998, published 2002).
